Experimental findings from PMC9255995 (Oncotarget, 2022) are described below.

In one data set the test system is T47D cells. Nature of the data set: T47D continuous dosing, apoptosis by Annexin V/PI flow cytometry. It counts as cell-based, human. To be noted: after 8 days of continuous dosing. On the procedure: T47D cells were seeded in six-well plates (50 000 cells/well) in 2 ml of cell medium (10% hiFBS [Fisher] and 1% Pen/Strep [Invitrogen]). […] Non-treated cells (0.04% DMSO) and staurosporine 1 μM were used as controls for minimum and maximum inhibition controls respectively. […] Cells were then detached using trypsin and transferred to the deep well plate and spun at 1 300 rpm for 5 min. Cell pellet was washed using PBS1X and plated for apoptosis measurement (Annexin V/PI), using the procedure described above (mature neutrophils). All cells were gated on FSC/SSC to exclude debris and doublets.
(Flow cytometry measures light scatter and fluorescence of single cells or particles in a stream.)

The test system of data set [1] is pRb (Ser780) in NCI-H1568 cells. Nature of the data set: pRb (Ser780) high content imaging cellular assay, CDK6-dependent NCI-H1568. It counts as cell-based. To be noted: Homo sapiens, CDK6-dependent cell line, n = 4, read-out: pRb (Ser780) Cellular assays IC50 NCI-H1568. On the procedure:
(§1) Intracellular phosphorylation of Rb in its residue 780 (Ser780) was measured using fluorescently labeled phospho-specific antibodies and high content imaging. […]
(§2) using the flow cytometer (gated on single and alive RNase A (Sigma R6513) and Propidium Iodide (PI) cells subpopulations). The mean fluorescence intensity, (Thermo Fisher P3566) dilution in PBS was added for 1 h or median of fluorescence (MFI), was calculated, and at RT. Fluorescence plates were scanned with ACUMEN compared for individual well and condition. EXPLORER™ monitoring Alexa Fluor 488 and PI signals Cell cycle was analyzed using a Ki67/PI protocol. using 488nm wavelength. […]
(§3) (Immunostep, PI/RNASE) for 15 min at RT in the dark. and representation of final readouts. JMP (Statistical […]
(§4) pRb Ser780 – high content imaging cell-based was incubated with an antibody against Annexin V. After assay [previously described in Torres-Guzmán et al. 10 minutes of incubation in dark, cells were washed twice (2017)] using Annexin buffer V. Finally, cells were analyzed using MDA-MB-453 (CDK4-dependent) and NCI-H1568 the flow cytometer where PI (1:100) was automatically (CDK6-dependent) cells were seeded at a density of 5 000 added. The percentage of cells at the different phases of and 3 000 cells per well, respectively, in 96-well plates. apoptosis was represented (PI–/Annexin V- for Alive cells, Between 14–24 h after seeding, cells were treated with PI–/Annexin V+ for Early apoptotic cells, PI+/Annexin […]
(§5) V+ for Late apoptotic cells and PI+/Annexin V– for Dead
(§6) Compounds were provided as 10mM stock in 100% cells).
(§7) DMSO and were further diluted to achieve the desired Senescence final concentration (DMSO 0.2%). For fluorescent detection of β-galactosidase, cells After treatment with compounds, the cells were washed with PBS 1X and fixed using 2% PFA incubated at 37°C and 5% CO2 for 4h before being (Acros organics, 119690010) for 10 minutes. Then, cells washed once with PBS and adding 100 μl of fresh media. were washed using PBS+1%BSA and incubated with the […]

The subject of data set [2] is pRb in MDA-MB-175 VII cells. Nature of the data set: Inhibition of pRb in breast cancer cell line MDA-MB-175 VII. It counts as cell-based. The following applies: Homo sapiens, 16 hours.
Data set [3] relates to pRb (Ser780) in MDA-MB-453 cells. Nature of the data set: pRb (Ser780) washout experiment in MDA-MB-453. The following applies: Homo sapiens. It counts as cell-based. The method, then: as §2
Next, cells were washed, Raw data were analyzed with FlowJo 10.6 software. and the cell pellet was incubated with PI/RNase A Graph Pad v8.4.3 software was used for data analysis (Immunostep, PI/RNASE) for 15 min at RT in the dark. and representation of final readouts. JMP (Statistical Cells were analyzed using the flow cytometer (gated for Discovery from SAS) was used for the statistical treatment debris exclusion and single cells). A minimum of 5 000 (ANOVA, pair-wise analysis) of the data. […]
All data were analyzed using FlowJo 10.6 and Graph Pad […]
as §4, §5, §6, §7

Data set [4] in a line: Viability of isolated mature neutrophils from human whole blood (Annexin V/PI). It counts as cell-based. The method, then: Human whole blood was obtained from six healthy donors who previously provided written informed consent. Mature neutrophils were isolated from human whole blood, using a negative-selection technique (MACSxpress isolation kit, Miltenyi 130-104-434). CD16 cell surface expression (Miltenyi, 130-113-396) was used as quality control; only samples with yield > 95% passed QC. CD34+ human bone marrow primary progenitor cells were obtained from Tebu bio (BM34C-4).
Mature neutrophils were plated in a 96-well plate (60K cells per well) in 100 μl RPMI 1640 (Invitrogen), 10% hiFBS (Fisher) and 1% Pen/Strep (Invitrogen).
Neutrophils were plated in a 96-well plate (60K cells/well) in the above-mentioned cell medium. A 10 mM stock of each CDK4 & 6i was used to make ten-point 1:3 serial dilutions in 100% DMSO; multiple dilution steps were used to reach the concentration in the assay: 10 μM, 0.1% DMSO. Non-treated cells (0.1% DMSO) and roscovitine (20 μM) were used as controls. Neutrophils were incubated for 6 h. Following treatment, cells were washed with FACS flow (BD, 342 003), and supernatant was removed. The cell pellet was stained with Annexin V-FITC antibody for 10 min in the dark. Cells were washed with Annexin buffer, centrifuged at 300 G for 5 min, supernatant was discarded, and cell pellet was resuspended in 100 μl of Annexin buffer and analyzed by flow cytometry. PI 1:200 was added automatically by the cytometer. All incubations occurred at 37°C, 5% CO2.
The percentage of alive, early apoptosis, late apoptosis, and dead cells was monitored using the Annexin V/PI assay. Cells were incubated with an anti-human Annexin V-FITC antibody, binding specifically to phosphotidylserine (PS), for 10 min in the dark. PS redistributes to the outer part of the cell membrane in an early stage of apoptosis; in late apoptotic cells, as the cell membrane loses its integrity, both PS and PI can be detected. […]

Another data set deals with pRb in HCC70 cells. Nature of the data set: Inhibition of pRb in breast cancer cell line HCC70. To be noted: Homo sapiens, 16 hours. It counts as cell-based.
The subject of the next data set is pRb in MDA-MB-231 cells. Nature of the data set: Inhibition of pRb in breast cancer cell line MDA-MB-231. It counts as cell-based. To be noted: Homo sapiens, 16 hours.
The test system of another data set is pRb in BT474 cells. Nature of the data set: Inhibition of pRb in breast cancer cell line BT474. It counts as cell-based. To be noted: Homo sapiens, BT-474; 16 hours.
The next data set relates to pRb in MDA-MB-361 cells. Nature of the data set: Inhibition of pRb in breast cancer cell line MDA-MB-361. It counts as cell-based. The following applies: Homo sapiens, 16 hours.
The test system of another data set is pRb in MCF-7 cells. Nature of the data set: Inhibition of pRb in breast cancer cell line MCF-7. It counts as cell-based. To be noted: Homo sapiens, MCF7; 16 hours.
A further data set relates to pRb in MDA-MB-134 cells. Nature of the data set: Inhibition of pRb in breast cancer cell line MDA-MB-134. To be noted: Homo sapiens; 16 hours. It counts as cell-based.
Data set [5] has as its system Rb1-deficient breast cancer cell lines. Nature of the data set: Breast cancer cell panel proliferation (nuclei count). It counts as cell-based, human. To be noted: two doublings. On the procedure: A panel of 37 BC cell lines (see Supplementary Table 3 for details) was obtained from the American Type Culture Collection (ATCC, Manassas, Virginia, USA 30-4500 K) or the German Collection of Microorganisms and Cell Cultures GmbH (DSMZ). Cells were cultured according to ATCC or DSMZ recommendations for fewer than ten passages. Cells were seeded in 96 or 384-well plates and incubated overnight prior to treatment.
Cells were plated at 1,000 or 2,000 cells per well in 384-well plates in a total volume of 25 μl of either growth media alone; with 2 μM staurosporine; or with decreasing concentrations of test compounds with a range 20 μM–1 nM. Test compounds were prepared in 100% DMSO using a dilution factor of 1:3 before addition to the cells pre-diluted in growth media. Cells were incubated at 37°C until the untreated cells had doubled twice. Cells were fixed with 70% ethanol, treated with RNAse and nuclei stained with Propidium Iodide (PI). Cell nuclei per well were counted using an ACUMEN EXPLORER™ (STP LABTECH LTD) to determine the number of cells remaining after treatment. […]
were thawed and resuspended in IMDM, 10% hiFBS […]
by curve, slope = steepness of curve at IC50. IC50: 558385), anti-CDK4 antibody (Abcam ab75511) and anti- […]
(ligand binding, enzyme response) by 50%. Fujifilm LAS4000. Actin (Sigma A5441) was used as a %Inh = [(median Max- x/ median Max – median loading control. […]
model were plotted as Geometric means in a waterfall plot using knime workflows. […]
containing 200 μg/ml Ribonuclease A (Sigma R6513).
To monitor senescence, cells […]
treated cells. The same procedure was also followed to instructions. […]
process. was removed. Cell pellet was incubated with Annexin […]
treated controls. […] Cells were analyzed […]
antibodies against CD13-FITC and CD11b-PE. After 10 exclusion and singlets selection). A minimum of 5000 […]
and supernatant was discarded. Cells were resuspended in (Alive). AnnexinV+/PI– (Early apoptosis), Annexin+/PI+ buffer for acquisition in flow cytometer. […]
cytometer (488-nm laser and 585/40nm filter). […] Finally, cells were washed and analyzed

For data set [6], the system named is pRb (Ser780) in MDA-MB-453 cells. Nature of the data set: pRb (Ser780) high content imaging cellular assay, CDK4-dependent MDA-MB-453. It counts as cell-based. The following applies: Homo sapiens, CDK4-dependent cell line, n = 4, read-out: pRb (Ser780) Cellular assays IC50 MDA-MB-453. The method, then:
as §1
The mean fluorescence intensity, (Thermo Fisher P3566) dilution in PBS was added for 1 h or median of fluorescence (MFI), was calculated, and at RT. Fluorescence plates were scanned with ACUMEN compared for individual well and condition. EXPLORER™ monitoring Alexa Fluor 488 and PI signals Cell cycle was analyzed using a Ki67/PI protocol. using 488nm wavelength. […]
as §3, §4, §5, §6, §7

A further data set relates to pRb in EFM-19 cells. Nature of the data set: Inhibition of pRb in breast cancer cell line EFM-19. It counts as cell-based. The following applies: Homo sapiens, 16 hours.
Another data set has as its target CDK4/CyclinD1 (Homo sapiens, UniProt P11802). To be noted: cell-free assay, KiATP.
The mark [7] stands for this setting: read-out: relative IC50 for pRb (Ser780) reduction, 12 h after compound removal, MDA-MB-453, 4 h treatment then 12 h washout.
Setting [8] is: MDA-MB-453, 4 h treatment, before compound removal, read-out: relative IC50 for pRb (Ser780) reduction, treatment phase.

Where only a bound is given, the exact number is not on record here.

CDK4/CyclinD1, sequence (P11802 whole entry): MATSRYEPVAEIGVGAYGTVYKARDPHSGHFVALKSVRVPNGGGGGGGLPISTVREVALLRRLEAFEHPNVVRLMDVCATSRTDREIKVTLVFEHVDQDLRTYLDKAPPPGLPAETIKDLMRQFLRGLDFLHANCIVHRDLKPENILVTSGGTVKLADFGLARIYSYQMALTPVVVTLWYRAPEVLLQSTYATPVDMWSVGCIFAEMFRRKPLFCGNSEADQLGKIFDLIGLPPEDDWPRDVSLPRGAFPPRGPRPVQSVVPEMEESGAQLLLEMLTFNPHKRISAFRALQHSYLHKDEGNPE
CDK4/CyclinD1, sequence (P24385 whole entry partner): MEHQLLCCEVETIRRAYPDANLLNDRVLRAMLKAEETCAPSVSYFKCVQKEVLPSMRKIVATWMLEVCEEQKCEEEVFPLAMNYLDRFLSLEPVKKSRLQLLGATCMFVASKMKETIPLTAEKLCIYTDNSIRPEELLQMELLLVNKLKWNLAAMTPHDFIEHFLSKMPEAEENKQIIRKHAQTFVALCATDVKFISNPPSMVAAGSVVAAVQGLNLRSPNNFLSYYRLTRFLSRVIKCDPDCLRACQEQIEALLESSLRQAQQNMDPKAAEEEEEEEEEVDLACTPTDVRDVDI
Procedure for CDK4/CyclinD1: Compounds were mixed with substrate mix (C-terminal retinoblastoma fragment [CTRF] peptide and ATP/33-P ATP) at a final concentration range of 2 μM–0.1 nM. The mix was incubated for 90 min at RT and the reaction was then stopped by adding 80 μl of 10% ortho-Phosphoric acid. The mix was next transferred to Multiscreen filter plates (Millipore) to retain phosphorylated peptide. The plates were read in a Microbeta Trilux instrument. Reaction mix with excess of EDTA was used as assay “bottom signal”; complete reaction mix without the inhibitor/compound was used as assay “top signal”.
For IC50 determination, results were fitted to a four-parameter dose-response curve using the following equation:
For the ATP saturation studies Ki and K’i parameters were estimated using the formula:
V=Vmax[S]/[Km(1+[I]/Ki)+[S](1+[I]/Ki')]

A word on the IC50: it is the point on the concentration scale where inhibition reaches its midpoint. The term viability denotes a read-out of living cells in per cent, often relative to untreated cells. Consider `CCN1CCN(Cc2ccc(Nc3ncc(F)c(-c4cc(F)c5nc(C)n(C(C)C)c5c4)n3)nc2)CC1` [Abemaciclib, abemaciclib], for which the “percentage in total apoptotic and dead cells” value is on record as 28.1% with T47D cells (50 nM) and 40.7% in the data set on T47D cells (100 nM). The IC50 in data set [1] is 94 nM; in [2] it was 17.8 ± 2.8 nM; in [3] (setting [7]), below 100 nM; in data set [3] (setting [8]) it was 6.4 nM; in the data set on pRb in HCC70 cells it was above 6000 nM; in the data set with pRb in MDA-MB-231 cells, 17.1 ± 4.2 nM. For the same compound, the IC50 in the data set on pRb in BT474 cells came out at 4.58 ± 2.9 nM; in the data set with pRb in MDA-MB-361 cells, 8.24 ± 1.6 nM; with pRb in MCF-7 cells, 19.4 ± 7.4 nM; in the data set on pRb in MDA-MB-134 cells it was 8.5 ± 0.9 nM; in data set [6] it was 7.4 nM; with pRb in EFM-19 cells, 4.4 ± 1.2 nM. Moreover, in data set [4], the viability at 6 h amounted to 82.5%. The “activity in Rb1-deficient cell lines (proliferation)” value (“activity in Rb1-deficient cell lines” for short) in data set [5] was “inactive”. Moreover, the “specificity for CDK4/Cyclin D1 over CDK6/Cyclin D3 complexes” value at CDK4/CyclinD1 is recorded as “approximately 14 fold”.
`CC(=O)c1c(C)c2cnc(Nc3ccc(N4CCNCC4)cn3)nc2n(C2CCCC2)c1=O` [Palbociclib, palbociclib]: the entries for the “percentage in total apoptotic and dead cells” value with T47D cells (50 nM) and with T47D cells (100 nM) were 13.2% and 18.7%, respectively. Moreover, the IC50 was 63 nM in data set [1]; 18.9 ± 4.7 nM in data set [2]; 447 nM in [3] (setting [7]); 14.1 nM in [3] (setting [8]); above 6000 nM with pRb in HCC70 cells; 16.1 ± 7.6 nM in the data set on pRb in MDA-MB-231 cells. The IC50 turned out to be 11.5 ± 5.5 nM with pRb in BT474 cells; 14.6 ± 2.1 nM in the data set with pRb in MDA-MB-361 cells; 25.6 ± 14 nM in the data set on pRb in MCF-7 cells; 20.5 ± 8.2 nM in the data set on pRb in MDA-MB-134 cells; 23 nM in [6]; 11 ± 0.6 nM with pRb in EFM-19 cells. Moreover, in data set [4], the viability at 6 h is 82.9%. Further, the “activity in Rb1-deficient cell lines” value in data set [5] is “inactive”.
As for `CN(C)C(=O)c1cc2cnc(Nc3ccc(N4CCNCC4)cn3)nc2n1C1CCCC1` [Ribociclib, ribociclib], the IC50 was 554 nM in data set [1]; 115 ± 80.9 nM in [2]; above 6000 nM with pRb in HCC70 cells; 71.5 ± 26.5 nM with pRb in MDA-MB-231 cells; 34 ± 26.7 nM in the data set with pRb in BT474 cells; 54.2 ± 13.8 nM with pRb in MDA-MB-361 cells. The IC50 in the data set with pRb in MCF-7 cells was 116 ± 78.5 nM; with pRb in MDA-MB-134 cells it was 60 ± 19.7 nM; in data set [6], 53 nM; in the data set with pRb in EFM-19 cells it was 31 ± 3.6 nM. In addition, in data set [4], the viability at 6 h was found to be 81.4%. Further, in data set [5], the “activity in Rb1-deficient cell lines” value is “inactive”.
